Experimental data: patent publication US7635788B2, “Alpha-amino acid derivatives with antiinflammatory activity” (Italfarmaco SpA, priority 2004, dated 2009)
pIC50: −log10 of the molar value.

How the values were obtained:
[1] = tested on: TNFα production by peripheral blood mononucleocytes stimulated with LPS; test: Inhibition of TNFα production by human monocytes stimulated with LPS; assay type: cell-based; conditions: LPS 10 ng/ml, 24 hours, ELISA
Procedure: The compounds were dissolved in DMSO at a final concentration of 10 mM.
The solutions for the assay were prepared by diluting the mother solutions in RPMI 1640 with the addition of 1% FCS and 0.01% DMSO and were filtered with 0.2 μm filters.
The peripheral blood mononucleocytes were obtained from blood from healthy donors by separation in a Ficoll-Hypaque gradient [C. G. Figdor, et al. Blood, 1982, 60: 46-53]. The cells were sown in 96-well plates, at a concentration of approx. 500,000 cells per well, suspended in RPMI 1640 containing 1% FCS and were incubated at 37° C. in the presence of different concentrations (from 10^−6 to 10^−11M) of the compounds to be investigated. After 1 hour, LPS was added (at a final concentration of 10 ng/ml; obtained from E. coli 055:B5) and the plates were incubated at 37° C. for a further 24 hours. At the end of this period, the supernatants were collected and used for the determination of TNFα content by means of ELISA (DuoSet ELISA kit; R&D Systems, Minneapolis, Minn., USA).
The concentration of TNFα was calculated using a calibration curve and the IC50 values (the concentration which brings about 50% inhibition of the production of the cytokine) were calculated from the curve obtained by plotting the percentage inhibition values for each individual concentration of the compound under investigation.

[2] = tested on: human hepatoma cell line Hep-G2; test: Cytotoxicity towards tumour cells in vitro (Cell Titer 96 formazane colorimetric assay); assay type: cell-based; conditions: 48 h, percentage inhibition of the formation of formazane relative to the control
Procedure: The cytotoxicity of some compounds described in the preceding Examples was evaluated in vitro on human hepatoma cell line Hep-G2, by means of a commercial colorimetric method (Cell Titer 96® Aque ous One Solution Cell Proliferation Assay—Promega); the method determines the number of viable cells on the basis of their capacity to metabolise a tetrazolium salt producing formazane. The quantity of formazane produced is proportional to the number of viable cells.
The Hep-G2 cells are distributed 96 well microplates at a density of 4×10^4 cells/well (100 μl), in M199 medium containing 10% foetal bovine serum and supplements (complete medium).
After 24 hours' incubation (37° C., 5% CO2, 90% humidity), the cells are washed once and the medium is replenished with 200 μl of complete medium containing the substances to be tested at the final concentration of 10^−5, 10^−6 and 10^−7M. The test is performed in triplicate.
The plates are incubated for a further 48 h, at the end of which 100 μl of medium are removed and 20 μl/well of staining solution are added in accordance with the supplier's instructions. Optical density (λ=490 nm) is read after 1 hour's incubation at 37° C. using a plate reader (Victor2—Wallac Perkin Elmer).

In the case of `O=C(NO)c1ccc(NC(=O)[C@H](Cc2ccc(-c3ccccc3)cc2)NC(=O)c2ccc3ccccc3c2)cc1` [Example 2y, N-[1(S)-(4-hydroxycarbamoyl-phenylcarbamoyl)-2-(biphenyl-4-yl)-ethyl]-amide of naphthalene-2-carboxylic acid], the pIC50 [1] was 7.67, the “Cytotoxicity at 10^−5 M” value ([2]; 10^−5 M) was 73.7% and the “Cytotoxicity at 10^−6 M” value ([2]; 10^−6 M) was 20.4%.
